According to patent US12264146B2, “Rho kinase inhibitor, method for preparing same and uses thereof” (BEIJING INCREASE INNOVATIVE DRUG CO., LTD., priority 2018, dated 2025):

Key:
endothelin (ET-1) = assay: Expression of endothelin (ET-1) in EA.Hy926 endothelial cells, detection kit; assay type: cell-based, human; details: EA.Hy926 cell supernatant, 48 h
Method: (§1) Commercially available cytokine kits were used to detect the effects of the compounds of the present application on vascular endothelium-derived contracting factor endothelin, vascular endothelium-derived relaxing factor endothelial nitric oxide synthase, nitric oxide, and prostacyclin factor. The detection was performed according to the kit instructions. When testing the effect of the compound of the present application on cytokines, a normal control group, a fasudil hydrochloride group, and high-, medium- and low-dose groups of the compounds of the present application were set up for testing. The fasudil hydrochloride used in this test example was purchased from Beijing Sihuan Pharmaceutical Co., Ltd., with the SFDA approval number of H20173349. The EA.Hy926 cells used in this test example were purchased from Suzhou Beina Chuanglian Biotechnology Co., Ltd.
EA.Hy926 cells were taken and inoculated in a 96-well plate at 5×10^4 cells/mL, 100 μL per well, and cultured adherently for 24 hours, then the test compound prepared in DMEM medium was added, and an equal volume of DMEM medium was added in the normal control group, then the cells were cultured at 37° C. for 48 hours, and then the cell supernatant was taken and placed in an EP tube, and centrifuged at 3000 r/min, 4° C. for 15 min. The resulting cell supernatant was transferred to a new EP tube, diluted twice with culture medium, and detected according to the instruction of the human endothelin detection kit (purchased from Wuhan Boster Biological Engineering Co., Ltd., batch number 59113731009), and the detection results were shown in Table 2.

[1] = test system: endothelial nitric oxide synthase (eNOS); assay: Endothelial nitric oxide synthase (eNOS) in EA.Hy926 endothelial cells, detection kit; assay type: cell-based; details: 24 h; for expression of endothelial nitric oxide synthase in endothelial cells: Detection result of test compound at low dose (0.4 μM) / expression of endothelial nitric oxide synthase in endothelial cells: Detection result of test compound at medium dose (2 μM) / expression of endothelial nitric oxide synthase in endothelial cells: Detection result of test compound at high dose (10 μM): EA.Hy926 cell supernatant
Method: as §1
Detection conditions: EA.Hy926 cells were inoculated at 1×10^5 […] in a 96-well plate, 100 μL per well, and cultured adherently for 24 hours, then the test compound prepared with DMEM medium was added, the normal control group was added with an equal volume of DMEM medium, then the cells were cultured for 24 hours at 37° C., and then the cell supernatant was taken and placed in an EP tube, and centrifuged at 3000 r/min and 4° C. for 15 minutes, the resulting supernatant was transferred to a new EP tube, diluted 3 times, and detected according to the instruction of eNOs detection kit (purchased from Wuhan Elabscience Biotechnology Co., Ltd., Cat. No. AK0017OCT12013), and the detection results were shown in Table 4.

In the case of `C[C@@H]1CNCCCN1S(=O)(=O)c1cccc2c(O)ncc(C3CC3)c12` [Compound R-YK1600-1, (R)-4-cyclopropyl-5-((2-methyl-1,4-diazacycloheptan-1-yl)sulfonyl)isoquinolin-1-ol], the “expression of endothelin in endothelial cells: Detection result of test compound at low dose (0.4 μM)” value (“expression of endothelin … (0.4 μM)” below) (endothelin (ET-1)) is reported as 228.20 ± 2.28 pg/mL, the “expression of endothelin in endothelial cells: Detection result of test compound at medium dose (2 μM)” value (from here on “expression of endothelin … (2 μM)”) (endothelin (ET-1)) is reported as 229.34 ± 7.96 pg/mL and the “expression of endothelin in endothelial cells: Detection result of test compound at high dose (10 μM)” value (from here on “expression of endothelin … (10 μM)”) (endothelin (ET-1)) is reported as 227.68 ± 3.34 pg/mL. For the same compound, the “expression of endothelial nitric oxide synthase in endothelial cells: Detection result of test compound at low dose (0.4 μM)” value [1] was 2528.44 ± 267.48 pg/mL, the “expression of endothelial nitric oxide synthase in endothelial cells: Detection result of test compound at medium dose (2 μM)” value [1] was 2485.91 ± 287.57 pg/mL and the “expression of endothelial nitric oxide synthase in endothelial cells: Detection result of test compound at high dose (10 μM)” value [1] was 2345.81 ± 213.65 pg/mL.
For `COc1ncc(C2CC2)c2c(S(=O)(=O)N3CCCNC[C@H]3C)cccc12` [Compound R-YK1600-2, (R)-4-cyclopropyl-1-methoxy-5-((2-methyl-1,4-diazacycloheptan-1-yl)sulfonyl)isoquinoline], the “expression of endothelin … (0.4 μM)” value (endothelin (ET-1)) was 223.55 ± 0.12 pg/mL, the “expression of endothelin … (2 μM)” value (endothelin (ET-1)) was 225.98 ± 11.41 pg/mL and the “expression of endothelin … (10 μM)” value (endothelin (ET-1)) was 229.23 ± 0.75 pg/mL. The “expression of endothelial nitric oxide synthase in endothelial cells: Detection result of test compound at low dose (0.4 μM)” value [1] was 2428.32 ± 287.58 pg/mL, the “expression of endothelial nitric oxide synthase in endothelial cells: Detection result of test compound at medium dose (2 μM)” value [1] was 2384.92 ± 317.27 pg/mL and the “expression of endothelial nitric oxide synthase in endothelial cells: Detection result of test compound at high dose (10 μM)” value [1] was 2245.86 ± 224.65 pg/mL.
With `C[C@@H]1CNCCCN1S(=O)(=O)c1cccc2c(O)nccc12` [Compound R-YK1601, (R)-5-((2-methyl-1,4-diazacycloheptan-1-yl)sulfonyl)isoquinolin-1-ol] the “expression of endothelin … (0.4 μM)” value (endothelin (ET-1)) was 253.46 ± 19.86 pg/mL, the “expression of endothelin … (2 μM)” value (endothelin (ET-1)) was 266.61 ± 20.77 pg/mL and the “expression of endothelin … (10 μM)” value (endothelin (ET-1)) was 243.07 ± 17.37 pg/mL. For the same compound, the “expression of endothelial nitric oxide synthase in endothelial cells: Detection result of test compound at low dose (0.4 μM)” value [1] was 2526.66 ± 220.56 pg/mL, the “expression of endothelial nitric oxide synthase in endothelial cells: Detection result of test compound at medium dose (2 μM)” value [1] was 2339.70 ± 249.84 pg/mL and the “expression of endothelial nitric oxide synthase in endothelial cells: Detection result of test compound at high dose (10 μM)” value [1] was 2598.44 ± 365.33 pg/mL. For the same compound, the “effect on the expression of nitric oxide synthase (in words)” value ([1]; high dose) was “slight promotion effect”.
In the case of `COc1nccc2c(S(=O)(=O)N3CCCNC[C@H]3C)cccc12` [Compound R-YK1602, (R)-1-methoxy-5-((2-methyl-1,4-diazacycloheptan-1-yl)sulfonyl)isoquinoline], the “expression of endothelin … (0.4 μM)” value (endothelin (ET-1)) is reported as 263.55 ± 0.12 pg/mL, the “expression of endothelin … (2 μM)” value (endothelin (ET-1)) is reported as 285.24 ± 13.22 pg/mL and the “expression of endothelin … (10 μM)” value (endothelin (ET-1)) is reported as 238.19 ± 19.65 pg/mL. The “expression of endothelial nitric oxide synthase in endothelial cells: Detection result of test compound at low dose (0.4 μM)” value [1] was 2607.85 ± 384.81 pg/mL, the “expression of endothelial nitric oxide synthase in endothelial cells: Detection result of test compound at medium dose (2 μM)” value [1] was 2314.00 ± 393.66 pg/mL and the “expression of endothelial nitric oxide synthase in endothelial cells: Detection result of test compound at high dose (10 μM)” value [1] was 2262.45 ± 134.54 pg/mL.
`C[C@@H]1CNCCCN1S(=O)(=O)c1cccc2cnccc12` [Compound R-YK1603, (R)-5-((2-methyl-1,4-diazacycloheptan-1-yl)sulfonyl)isoquinoline] was tested, and the “expression of endothelin … (0.4 μM)” value (endothelin (ET-1)) was 242.75 ± 52.53 pg/mL, the “expression of endothelin … (2 μM)” value (endothelin (ET-1)) was 252.72 ± 22.83 pg/mL and the “expression of endothelin … (10 μM)” value (endothelin (ET-1)) was 242.03 ± 1.24 pg/mL. For the same compound, the “expression of endothelial nitric oxide synthase in endothelial cells: Detection result of test compound at low dose (0.4 μM)” value [1] was 2928.44 ± 257.48 pg/mL, the “expression of endothelial nitric oxide synthase in endothelial cells: Detection result of test compound at medium dose (2 μM)” value [1] was 2385.91 ± 387.57 pg/mL and the “expression of endothelial nitric oxide synthase in endothelial cells: Detection result of test compound at high dose (10 μM)” value [1] was 2245.94 ± 213.65 pg/mL.
With `C[C@@H]1CNCCCN1S(=O)(=O)c1cccc2c(O)ncc(F)c12` [Compound R-YK1604, (R)-4-fluoro-5-((2-methyl-1,4-diazacycloheptan-1-yl)sulfonyl)isoquinolin-1-ol] the “expression of endothelin … (0.4 μM)” value (endothelin (ET-1)) was 232.75 ± 42.51 pg/mL, the “expression of endothelin … (2 μM)” value (endothelin (ET-1)) was 242.72 ± 20.81 pg/mL and the “expression of endothelin … (10 μM)” value (endothelin (ET-1)) was 230.03 ± 1.24 pg/mL. The “expression of endothelial nitric oxide synthase in endothelial cells: Detection result of test compound at low dose (0.4 μM)” value [1] was 2932.05 ± 435.87 pg/mL, the “expression of endothelial nitric oxide synthase in endothelial cells: Detection result of test compound at medium dose (2 μM)” value [1] was 2397.93 ± 180.08 pg/mL and the “expression of endothelial nitric oxide synthase in endothelial cells: Detection result of test compound at high dose (10 μM)” value [1] was 2229.68 ± 63.98 pg/mL.
For `COc1ncc(F)c2c(S(=O)(=O)N3CCCNC[C@H]3C)cccc12` [Compound R-YK1605, (R)-4-fluoro-1-methoxy-5-((2-methyl-1,4-diazacycloheptan-1-yl)sulfonyl)isoquinoline], the “expression of endothelin … (0.4 μM)” value (endothelin (ET-1)) was 231.61 ± 9.70 pg/mL, the “expression of endothelin … (2 μM)” value (endothelin (ET-1)) was 228.98 ± 11.41 pg/mL and the “expression of endothelin … (10 μM)” value (endothelin (ET-1)) was 259.53 ± 0.75 pg/mL. The “expression of endothelial nitric oxide synthase in endothelial cells: Detection result of test compound at low dose (0.4 μM)” value [1] was 2752.53 ± 779.12 pg/mL, the “expression of endothelial nitric oxide synthase in endothelial cells: Detection result of test compound at medium dose (2 μM)” value [1] was 2261.58 ± 253.77 pg/mL and the “expression of endothelial nitric oxide synthase in endothelial cells: Detection result of test compound at high dose (10 μM)” value [1] was 2105.70 ± 87.14 pg/mL.
In the case of `C[C@@H]1CNCCCN1S(=O)(=O)c1cccc2c(O)ncc(Cl)c12` [Compound R-YK1606, (R)-4-chloro-5-((2-methyl-1,4-diazacycloheptan-1-yl)sulfonyl)isoquinolin-1-ol], the “expression of endothelin … (0.4 μM)” value (endothelin (ET-1)) is reported as 231.75 ± 32.51 pg/mL, the “expression of endothelin … (2 μM)” value (endothelin (ET-1)) is reported as 242.62 ± 19.81 pg/mL and the “expression of endothelin … (10 μM)” value (endothelin (ET-1)) is reported as 231.03 ± 1.24 pg/mL. For the same compound, the “expression of endothelial nitric oxide synthase in endothelial cells: Detection result of test compound at low dose (0.4 μM)” value [1] was 2974.79 ± 361.75 pg/mL, the “expression of endothelial nitric oxide synthase in endothelial cells: Detection result of test compound at medium dose (2 μM)” value [1] was 2400.67 ± 226.73 pg/mL and the “expression of endothelial nitric oxide synthase in endothelial cells: Detection result of test compound at high dose (10 μM)” value [1] was 2286.01 ± 95.04 pg/mL.
For `CCc1cnc(O)c2cccc(S(=O)(=O)N3CCCNC[C@H]3C)c12` [Compound R-YK1607, (R)-4-ethyl-5-((2-methyl-1,4-diazacycloheptan-1-yl)sulfonyl)isoquinolin-1-ol], the “expression of endothelin … (0.4 μM)” value (endothelin (ET-1)) was 248.20 ± 2.28 pg/mL, the “expression of endothelin … (2 μM)” value (endothelin (ET-1)) was 259.34 ± 7.96 pg/mL and the “expression of endothelin … (10 μM)” value (endothelin (ET-1)) was 237.68 ± 3.34 pg/mL. For the same compound, the “expression of endothelial nitric oxide synthase in endothelial cells: Detection result of test compound at low dose (0.4 μM)” value [1] was 2426.66 ± 220.56 pg/mL, the “expression of endothelial nitric oxide synthase in endothelial cells: Detection result of test compound at medium dose (2 μM)” value [1] was 2239.70 ± 249.84 pg/mL and the “expression of endothelial nitric oxide synthase in endothelial cells: Detection result of test compound at high dose (10 μM)” value [1] was 2298.44 ± 265.33 pg/mL.
With `O=S(=O)(c1cccc2cnccc12)N1CCCNC[C@H]1C1CC1` [Compound R-YK1608, (R)-5-((2-cyclopropyl-1,4-diazacycloheptan-1-yl)sulfonyl)isoquinoline] the “expression of endothelin … (0.4 μM)” value (endothelin (ET-1)) was 233.55 ± 0.12 pg/mL, the “expression of endothelin … (2 μM)” value (endothelin (ET-1)) was 229.98 ± 11.41 pg/mL and the “expression of endothelin … (10 μM)” value (endothelin (ET-1)) was 239.23 ± 0.75 pg/mL. The “expression of endothelial nitric oxide synthase in endothelial cells: Detection result of test compound at low dose (0.4 μM)” value [1] was 2697.85 ± 284.81 pg/mL, the “expression of endothelial nitric oxide synthase in endothelial cells: Detection result of test compound at medium dose (2 μM)” value [1] was 2344.00 ± 293.66 pg/mL and the “expression of endothelial nitric oxide synthase in endothelial cells: Detection result of test compound at high dose (10 μM)” value [1] was 2269.45 ± 134.54 pg/mL.
